From patent EP0019589A1, “Tripeptide derivatives and their use in a process for determining enzymes” (Pentapharm A.G., priority 1979, dated 1980)
Non-standard residues stand in square brackets, D forms with d. Residues, ends and D or L forms follow the SMILES beside them. *: point of attachment. Cha = N[C@@H](CC1CCCCC1)C(=O)O; dChg = N[C@@H](C(=O)O)C1CCCCC1; pNA = O=[N+]([O-])c1ccc(N*)cc1; AMC = Cc1cc(=O)oc2cc(N*)ccc12; βNA = c1ccc2cc(N*)ccc2c1

Columns and labels:
Type in all cases: biochemical
Urinkallikrein = biological target: T1, Urinkallikrein (Homo sapiens, UniProt P06870); assay: Cleavage of chromogenic substrate by urinary kallikrein in human urine; conditions: 1 ml human urine (pooled morning urine of healthy persons), per min; Substratkonzentration 2 x 10^-4 molar
T1 construct: 1 ml Urin und 1 ml TRIS-Imidazol-Puffer mit pH 7,9; from tissue; host or cells: human urine
T1 sequence (P06870 25-262): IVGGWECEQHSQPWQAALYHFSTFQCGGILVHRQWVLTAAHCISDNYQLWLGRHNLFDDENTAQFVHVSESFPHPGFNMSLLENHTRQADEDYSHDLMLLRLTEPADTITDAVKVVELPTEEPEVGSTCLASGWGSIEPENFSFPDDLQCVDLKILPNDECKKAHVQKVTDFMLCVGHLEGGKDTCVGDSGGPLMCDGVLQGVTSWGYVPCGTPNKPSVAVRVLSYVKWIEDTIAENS
Method: 1. Bestimmung von Urinkallikrein.
1 ml Urin und 1 ml TRIS-Imidazol-Puffer mit pH 7,9 und Ionenstärke 1,0 werden 5 Min. bei 37°C inkubiert undcänn zentrifugiert, um Sedimente zu entfernen.
In einer-Plastikküvette werden 1,4 ml dest. H20 von 37°C und 0,4 ml des Zentrifugats gut gemischt. Zu dieser Mischung gibt man 0,2 ml einer 2 x 10^-3 molaren wässrigen Substratlösung und durchmischt die Komponenten schnell. Dieses Gemisch wird genau 15 Min. bei 37°C inkubiert. Dann wird dem Reaktionsgemisch 0,2 ml Eisessig zugemischt, um die Enzymreaktion zu unterbrechen. Zur Farbmessung verwendet man eine Vergleichsprobe (Blindprobe), die aus den gleichen Komponenten zusammengesetzt ist, wobei jedoch der Eisessig vor Zugabe des Substrates zugesetzt wird, um die Enzymreaktion zu verhindern. Dann wird bei 405 nm photometrisch oder spektrophotometrisch die Menge der gebildeten farbigen Verbindung RNH 2 aus der Differenz zwischen der Blindprobe und der zu bestimmenden Probe ermittelt. Aus dem ermittelten Wert wird die Urinkallikreinaktivität im Urin nach der folgenden Formel berechnet: [formula] • Δ OD = Zunahme der optischen Dichte bei 405 nm während 15 Min. • V = Totalvolumen des Bestimmungsansatzes = 2,2 ml • 1000 = Umrechnungsfaktor zur Umwandlung von U in mU • F = Verdünnungsfaktor des Urins (2) • v = Volumen der Probe = 0,4 ml • ε = Extinktionskoeffizient dividiert durch 1000 = 10,4
Bei der oben beschriebenen Bestimmungsmethode misst man somit die Summe der Aktivitäten von Urinkallikrein und Urokinase. Um die genaue Urinkallikreinaktivität zu erhalten, muss man die Urokinaseaktivität abziehen, welche dadurch bestimmt werden kann, dass man in einem Vergleichsversuch durch Zugabe von 0,075 Einheiten Trypsininhibitor (Trypsininhibitor aus Rinderlunge) pro ml Puffer die Urinkallikreinaktivität vollständig hemmt und nur die Urokinaseaktivität misst.
(§1) Bei der Messung des durch die enzymatische Hydrolyse des Substrates gebildeten Spaltproduktes RrNH2 geht man von der Voraussetzung aus, dass das Spaltprodukt ein UV-Spektrum besitzt, das von demjenigen des Substrates verschieden und in Richtung höherer Wellenlängen verschoben ist. Die Absorption des Substrates bei 405 nm ist praktisch Null. p-Nitroanilin als Spaltprodukt weist ein Absorptionsmaximum bei 380 nm und einen molaren Extinktionskoeffizienten von 13'200 auf. Bei 405 nm ist der Extinktionskoeffizient nur wenig niedriger, d.h. […] Der Grad der enzymatischen Hydrolyse des Substrates, welcher der Menge des abgespaltenen p-Nitroanilins proportional ist, lässt sich durch spektrophotometrische Messung bei 405 nm bestimmen. Auch bei Anwesenheit eines Ueberschusses an Substrat wird die Messung bei 405 nm nicht gestört.
(§2) Bei den Substraten, die als chromogene Gruppe eine 2-Naphthylamino-, 4-Methoxy-2-naphthylamino-, 4-Methyl-cumaryl-(7)-amino- oder 1,3-Di(methoxycarbonyl)-phenyl-(5)-amino-Gruppe enthalten, wird die Menge des Spaltproduktes R-NH2 durch Fluoreszenzspektrophotometrie gemessen. In einem aus Enzym, Puffer und Substrat bestehenden Testsystem misst man kontinuierlich das energieärmere emittierte Licht bei 400-470 nm, nachdem man das gebildete fluoreszierende Spaltprodukt mit energiereicherem Licht erregt hat. Die pro Zeiteinheit gebildete Menge Spaltprodukt ist ein Mass für die vorhandene Enzymaktivität. 1 µMol Spaltprodukt pro Minute entspricht definitionsgemäss 1 Enzym-Einheit, bezogen auf ein gegebenes Substrat.

[1] = biological target: T2, Submandibularis-Kallikrein (Homo sapiens, UniProt P06870); assay: Cleavage of chromogenic substrate by submandibular (glandular) kallikrein in human sputum; conditions: 1 ml human sputum, per min; Substratkonzentration 2 x 10^-4 molar
T2 construct: Man mischt 0,5 ml Sputum mit 2 ml TRIS-Imidazol-Puffer; from tissue; host or cells: human sputum
T2 sequence (P06870 25-262): as above
Method: 2. Bestimmung des Glandulärkallikreins im Sputum: • Man mischt 0,5 ml Sputum mit 2 ml TRIS-Imidazol-Puffer (Ionenstärke 1,0) und präinkubiert die Mischung 5 Min. bei 37°C. Das Inkubat wird zentrifugiert. In eine Testküvette wird 1,5 ml dest. H2O von 37°C vorgelegt und mit 0,25 ml des Zentrifugats versetzt. Die Komponenten werden gut gemischt. Dann wird 0,2 ml 2 x 10-^3 molare wässrige Substratlösung zugesetzt und gemischt. Dann wird bei 405 nm die Extinktions- änderung kontinuierlich mittels eines Schreibers während 5-10 Min. verfolgt. Aus dem ermittelten Δ OD pro Min. wird mittels der nachstehenden Formel die Kallikreinaktivität pro ml Sputum in mU errechnet: [formula] • F = 5 • V = 1,95 • v = 0,25 • 1 U (Einheit) = Enzymmenge, die während 1 Min. 1 µMol Substrat unter optimalen oder sonst festgelegten Bedingungen in Bezug auf pH, Ionenstärke, Temperatur und Substratkonzentration zu spalten vermag
as §1, with “gestört. […]” for “gestört.”

Humanplasmin = biological target: T3, Humanplasmin (Homo sapiens, UniProt P00747); assay: Cleavage of chromogenic substrate by human plasmin; conditions: 1 CU-Einheit human plasmin, per min; Substratkonzentration 2 x 10^-4 molar
T3 construct: da bei der Aktivierung aus 1 Molekül Plasminogen 1 Molekül Plasmin entsteht
T3 sequence (P00747 581-810 limits assumed): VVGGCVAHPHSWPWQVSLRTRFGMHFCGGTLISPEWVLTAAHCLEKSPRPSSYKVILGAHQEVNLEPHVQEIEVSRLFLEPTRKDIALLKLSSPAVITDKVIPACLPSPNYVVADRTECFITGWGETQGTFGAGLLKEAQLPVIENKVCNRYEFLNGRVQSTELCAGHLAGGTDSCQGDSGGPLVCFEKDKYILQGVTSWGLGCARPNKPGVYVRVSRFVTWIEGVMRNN
T3 sequence (P00747 97-580 partner limits assumed): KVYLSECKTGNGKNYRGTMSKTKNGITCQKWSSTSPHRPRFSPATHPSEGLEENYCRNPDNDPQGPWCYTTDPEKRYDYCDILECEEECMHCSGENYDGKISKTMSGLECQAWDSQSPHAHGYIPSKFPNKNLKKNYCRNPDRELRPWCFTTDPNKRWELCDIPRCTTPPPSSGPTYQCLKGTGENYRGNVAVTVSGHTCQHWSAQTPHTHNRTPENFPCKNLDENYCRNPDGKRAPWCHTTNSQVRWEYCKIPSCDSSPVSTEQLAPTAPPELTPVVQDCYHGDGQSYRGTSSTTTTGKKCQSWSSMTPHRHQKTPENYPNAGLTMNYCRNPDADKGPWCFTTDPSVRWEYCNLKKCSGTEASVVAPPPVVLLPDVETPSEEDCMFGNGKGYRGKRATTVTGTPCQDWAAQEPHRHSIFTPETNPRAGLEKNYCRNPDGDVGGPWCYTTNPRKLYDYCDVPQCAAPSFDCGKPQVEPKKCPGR
Method: 3. Bestimmung von Plasmin:
Man mischt 1,7 ml TRIS-Imidazol-Puffer (pH 7,5, Ionenstärke 0,2) bei 37°C mit 0,1 ml einer Lösung von Plasmin in 25%igem Glycerin und inkubiert die Mischung während 1 Min. bei 37°C. Dann gibt man der Mischung 0,2 ml einer wässrigen 2 x 10^-3 molaren Substxatlösung von 37°C zu und durchmischt das Ganze schnell. Man ermittelt dann kontinuierlich die pro Zeiteinheit aus dem Substrat freigesetzte Menge des Spaltproduktes R-NH2. Aus dem pro Min. ermittelten Wert berechnet man dann die Plasminaktivität pro ml Probe in mU nach der folgenden Formel: [formula] • ΔE = pro Min. freigesetzte Menge des Spaltproduktes • V = Totalvolumen des Testansatzes • v = Volumen der Probe • = Extinktionskoeffizient dividiert durch 1000
as §1, §2

Humanthrombin = biological target: T4, Humanthrombin (Homo sapiens, UniProt P00734); assay: Cleavage of chromogenic substrate by human NIH thrombin; conditions: 1 NIH-Einheit human thrombin, per min; Substratkonzentration 2 x 10^-4 molar
T4 construct: Humanplasmin und hu-manem NIH-Thrombin
Source text: as §1, §2

Menge des durch 1 ml Humanurin pro Min. freigesetzten Spaltproduktes R-NH2 in Nanomol (Urinkallikrein) (Urinkallikrein)	Menge des durch 1 ml Humansputum pro Min. freigesetzten Spaltproduktes R-NH2 in Nanomol (Submandibularis-Kallikrein) [1]	Menge des durch 1 CU-Einheit Humanplasmin pro Min. freigesetzten Spaltproduktes R-NH2 in Nanomol (Humanplasmin) (Humanplasmin)	Menge des durch 1 NIH-Einheit Thrombin pro Min. freigesetzten Spaltproduktes R-NH2 in Nanomol (Humanthrombin) (Humanthrombin)	Compound
0,77 Nanomol	7,4 Nanomol	860 Nanomol	18,7 Nanomol	2HBr.H-D-CHT-Phe-Arg-pNA [Beispiel 17]
1,20 Nanomol	21,4 Nanomol	690 Nanomol	45,8 Nanomol	2HBr.H-D-CHT-Pro-Arg-pNA [Beispiel 23]
0,59 Nanomol	10,9 Nanomol	1252 Nanomol	9,5 Nanomol	2HBr.H-D-CHT-Tyr-Arg-pNA [Beispiel 45]
2,55 Nanomol	31,2 Nanomol	430 Nanomol		Cc1cc(=O)oc2cc(NC(=O)[C@H](CCCNC(=N)N)NC(=O)[C@H](CC3CCCCC3)NC(=O)[C@H](N)C(C)C)ccc12 [Beispiel 3, 2HBr.H-D-Val-CHA-Arg-MCA] (H-[dV]-[Cha]-Arg-{AMC})
0,60 Nanomol	15,7 Nanomol	1120 Nanomol		Cc1cc(=O)oc2cc(NC(=O)[C@H](CCCCN)NC(=O)[C@H](Cc3ccccc3)NC(=O)[C@H](N)C3CCCCC3)ccc12 [Beispiel 4, 2HBr.H-D-CHG-Phe-Lys-MCA] (H-[dChg]-Phe-Lys-{AMC})
2,42 Nanomol	28,5 Nanomol	408 Nanomol		COC(=O)c1cc(NC(=O)[C@H](CCCNC(=N)N)NC(=O)[C@H](CC2CCCCC2)NC(=O)[C@H](N)C(C)C)cc(C(=O)OC)c1 [Beispiel 5, 2HBr.H-D-Val-CHA-Arg-DPA]
0,72 Nanomol	24,8 Nanomol	1215 Nanomol		COC(=O)c1cc(NC(=O)[C@H](CCCCN)NC(=O)[C@H](Cc2ccccc2)NC(=O)[C@H](N)C2CCCCC2)cc(C(=O)OC)c1 [Beispiel 6, 2HBr.H-D-CHG-Phe-Lys-DPA]
2,38 Nanomol	25,4 Nanomol	388 Nanomol		COc1cc(NC(=O)[C@H](CCCNC(=N)N)NC(=O)[C@H](CC2CCCCC2)NC(=O)[C@H](N)C(C)C)cc2ccccc12 [Beispiel 9, 2HBr.H-D-Val-CHA-Arg-4-MeO-2-NA]
0,61 Nanomol	14,9 Nanomol	1165 Nanomol		COc1cc(NC(=O)[C@H](CCCCN)NC(=O)[C@H](Cc2ccccc2)NC(=O)[C@H](N)C2CCCCC2)cc2ccccc12 [Beispiel 10, 2HBr.H-D-CHG-Phe-Lys-4-MeO-2-NA]

Compound	Menge des durch 1 ml Humanurin pro Min. freigesetzten Spaltproduktes R-NH2 in Nanomol (Urinkallikrein) (Urinkallikrein)	Menge des durch 1 ml Humansputum pro Min. freigesetzten Spaltproduktes R-NH2 in Nanomol (Submandibularis-Kallikrein) [1]	Menge des durch 1 CU-Einheit Humanplasmin pro Min. freigesetzten Spaltproduktes R-NH2 in Nanomol (Humanplasmin) (Humanplasmin)	Menge des durch 1 NIH-Einheit Thrombin pro Min. freigesetzten Spaltproduktes R-NH2 in Nanomol (Humanthrombin) (Humanthrombin)
CC(C)C[C@H](NC(=O)[C@H](N)C(C)C)C(=O)N[C@@H](CCCNC(=N)N)C(=O)Nc1ccc([N+](=O)[O-])cc1 [A, 2HCl.H-D-Val-Leu-Arg-pNA, reference compound] (H-[dV]-Leu-Arg-pNA)	0,90 Nanomol	12,2 Nanomol	83 Nanomol	
CC(C)C[C@H](NC(=O)[C@H](N)C(C)C)C(=O)N[C@@H](CCCCN)C(=O)Nc1ccc([N+](=O)[O-])cc1 [B, 2HCl.H-D-Val-Leu-Lys-pNA, reference compound] (H-[dV]-Leu-Lys-pNA)	0,30 Nanomol	5,7 Nanomol	347 Nanomol	
NCCCC[C@H](NC(=O)[C@H](Cc1ccccc1)NC(=O)[C@H](N)C1CCCCC1)C(=O)Nc1ccc([N+](=O)[O-])cc1 [Beispiel 2, 2HBr.H-D-CHG-Phe-Lys-pNA] (H-[dChg]-Phe-Lys-pNA)	0,80 Nanomol	25,6 Nanomol	1150 Nanomol	
CC(C)[C@@H](N)C(=O)N[C@@H](CC1CCCCC1)C(=O)N[C@@H](CCCNC(=N)N)C(=O)Nc1ccc2ccccc2c1 [Beispiel 7, 2HBr.H-D-Val-CHA-Arg-2-NA] (H-[dV]-[Cha]-Arg-βNA)	2,55 Nanomol	31,1 Nanomol	428 Nanomol	
NCCCC[C@H](NC(=O)[C@H](Cc1ccccc1)NC(=O)[C@H](N)C1CCCCC1)C(=O)Nc1ccc2ccccc2c1 [Beispiel 8, 2HBr.H-D-CHG-Phe-Lys-2-NA] (H-[dChg]-Phe-Lys-βNA)	0,58 Nanomol	17,6 Nanomol	1180 Nanomol	
